{
  "source": "patent US20170239239A1",
  "about": "“Method for Inducing a Sustained Immune Response” (Immune Therapeutics Inc., priority 2016, published 2017)",
  "key": {"[1]": {"system": "pancreatic cancer cells: MIA-PaCa2, PANC1, and BxPC3", "assay": "Continuous 48 h exposure to naltrexone, pancreatic cancer cells"}, "HIV/AIDS patients": {"system": "HIV/AIDS patients", "assay": "Naltrexone as adjunct therapy, 50 HIV patients in Africa", "assay_type": "in vivo, human", "description": "Naltrexone as an adjunct therapy with HIV/AIDS patients. […] HIV disease is associated with a new constellation of problems, generally referred to as “non-AIDS morbidity”, and, in the popular press, “premature aging. […] at risk for developing a number of non-AIDS conditions, including cardiovascular disease, cancer, kidney disease, liver disease, osteopenia/osteoporosis and neurocognitive disease (collectively referred to as “serious non-AIDS events”). Malignancies associated with infections such as human papilloma virus (including uro-genital and head and neck cancers), Epstein Barr Virus (including Hodgkins disease), and hepatitis B and C (hepatocellular carcinoma), are also relatively common in HIV-infected adult. […] Subtle elevations in many of these biomarkers are associated with dramatic increases in the risk of subsequent disease, including all-cause mortality For example, as compared to a well-matched uninfected population, treated HIV-infected adults have approximately 50 to 100% higher levels of the inflammatory cytokine interleukin-6 (IL-6)^(32). […] Risk factors for impaired CD4 T-cell recovery include low pre-treatment CD4+ T cell count nadir, co-infection with other viruses such as hepatitis C, older age, and perhaps viral factors(24). Suboptimal treatment-mediated CD4+ T cell outcomes likely have clinical consequences given the consistent association between CD4+ T cell counts during ART and elevated risk of many co-morbidities (e.g., heart disease, cancer) and all-cause mortality. Chronic signaling through the interferon-alpha pathway may contribute to this inflammatory disease^(32), as can the impact of virus production/entry (without productive infection) on pyroptosis, which is a highly inflammatory process that can cause death of affected and neighboring cells. The frequency of activated T cells remains elevated during chronic treatment and appears related to size of the HIV reservoir and pace of immune reconstitution although the effect of this marker in predicting overall morbidity and mortality is not as strong as some of the innate immune system inflammatory markers^(37).\nWe believe that long term monitoring of patients will show a reduction in non-AIDS morbidity."}, "psoriatic arthritis": {"system": "psoriatic arthritis", "assay": "Case report, psoriatic arthritis", "assay_type": "in vivo, human"}, "Crohn's disease [2]": {"system": "Crohn's disease", "assay": "Pilot clinical trial in children with moderate to severe Crohn's disease", "assay_type": "in vivo, human", "procedure": "A pilot clinical trial was conducted in children with moderate to severe Crohn's disease. Fourteen subjects with a mean age of 12.3 years (range, 8 to 17 y) were enrolled. […] Safety and toxicity were monitored by physical examinations and blood chemistries. Clinical activity was assessed by the Pediatric Crohn's Disease Activity Index (PCDAI) and Quality of life was monitored by the Impact III survey."}, "multiple sclerosis": {"system": "multiple sclerosis", "assay": "Case reports, multiple sclerosis"}, "patients with AIDS": {"system": "patients with AIDS", "details": "cited from earlier work"}, "Crohn's disease [3]": {"system": "Crohn's disease", "assay": "Randomized placebo-controlled study in 40 subjects with active Crohn's disease", "assay_type": "in vivo, human", "description": "Forty subjects with active Crohn's disease were enrolled in the study. […] Providers and patients were masked to treatment assignment. The primary outcome was the proportion of subjects in each arm with a 70-point decline in Crohn's Disease Activity Index score (CDAI). The secondary outcome included mucosal healing based upon colonoscopy appearance and histology."}, "[4]": {"system": "primary progressive multiple sclerosis (PPMS)", "assay": "Six month phase II multicenter pilot trial in primary progressive multiple sclerosis, 40 patients", "assay_type": "in vivo, human", "procedure": "The primary end points were safety and tolerability. Secondary outcomes were efficacy on spasticity, pain, fatigue, depression, and quality of life. Clinical and biochemical evaluations were serially performed. Protein concentration of beta-endorphins (BE) and mRNA levels and allelic variants of the mu-opioid receptor gene (OPRM1) were analyzed."}, "fibromyalgia": {"system": "fibromyalgia", "assay": "Study in ten women with fibromyalgia", "assay_type": "in vivo, human", "description": "Baseline erythrocyte sedimentation rate predicted over 80% of the variance in drug response. […] Which confirms the ability of Immediate release naltrexone to decree pain and inflammation."}, "[5]": {"system": "lymphocyte subsets of autistic children", "assay": "Behavioral and immunological assessment in autism, double-blind naltrexone", "set-up": "species or system human", "details": "in vivo", "description": "Opioid-immune interactions in autism: behavioral and immunological assessment during a double-blind treatment with naltrexone.\nChanges in natural killer cells and activity were inversely related to plasma beta-endorphin levels."}, "autism": {"system": "autism", "assay": "Randomized, double blind, placebo-controlled study in autism", "assay_type": "in vivo, human"}, "Systemic Lupus": {"system": "Systemic Lupus", "assay": "Case reports, systemic lupus", "details": "person"}, "[6]": {"details": "3.0 mg daily at bedtime, 12 weeks, vs placebo"}},
  "note": "Read-outs that look alike come from different tables or passages of the source.",
  "data": [
    {"smiles": "O=C1CC[C@@]2(O)[C@H]3Cc4ccc(O)c5c4[C@@]2(CCN3CC2CC2)[C@H]1O5", "note": "[Immediate release naltrexone, naltrexone]", "values": [
      {"measurement": "effect on pancreatic cancer cells", "setting": "[1]", "value": "no effect"},
      {"measurement": "pain scores NRS", "setting": "CRPS; patient, EDS, 3 mg then 4.5 mg per day, from (7-10)/10", "value": "3-5 /10"},
      {"measurement": "post-operative pain NRS", "setting": "CRPS; patient, 3 weeks after resuming", "value": "4-6 /10"},
      {"measurement": "side effects", "setting": "CRPS; patient, 18 months", "value": "No side effects"},
      {"measurement": "fixed dystonia of the leg", "setting": "CRPS; patient, at cast removal after ankle surgery", "value": "remission"},
      {"measurement": "effect on the dystonia", "setting": "CRPS; patient, first months of treatment", "value": "no effect"},
      {"measurement": "CRPS symptoms", "setting": "CRPS; patient, maintained for 18 months", "value": "resolved completely"},
      {"measurement": "side effects", "setting": "CRPS; person five", "value": "No side effects"},
      {"measurement": "pain, average on the Numeric Rating Scale (NRS)", "setting": "CRPS; person five, 4.5 mg per day at night, from 8 to 10 before", "value": "5 to 6"},
      {"measurement": "dystonic spasms", "setting": "CRPS; person five, within 2 months", "value": "discontinued"},
      {"measurement": "opportunistic infection", "setting": "HIV/AIDS patients; long term", "value": "reduction"},
      {"measurement": "quality of life", "setting": "HIV/AIDS patients; long term", "value": "higher"},
      {"measurement": "Th1/Th2 balance", "setting": "HIV/AIDS patients; with standard of care (ART)", "value": "shift from Th1 (pro-inflammatory) to Th2 (anti-inflammatory)"},
      {"measurement": "inflammatory cytokine", "setting": "HIV/AIDS patients; with standard of care (ART)", "value": "Secreased"},
      {"measurement": "use of other medication", "setting": "psoriatic arthritis; person, 4.5 mg at bedtime, within 10 days", "value": "able to discontinue all paid medications as well as the Humira"},
      {"measurement": "disease course", "setting": "psoriatic arthritis; six months", "value": "the disease has stabilized and the progressive deterioration has stopped"},
      {"measurement": "PCDAI score", "setting": "Crohn's disease [2]; 0.1 mg/kg orally, 8-week course, pretreatment 34.2±3.3, P=0.005", "value": "21.7±3.9"},
      {"measurement": "Systemic and social quality of life (Impact III)", "setting": "Crohn's disease [2]; P=0.035", "value": "improved"},
      {"measurement": "improved with mild disease activity (decrease in PCDAI score by at least 10 points)", "setting": "Crohn's disease [2]; end of the study", "value": 67, "unit": "%"},
      {"measurement": "in remission (score≦10)", "setting": "Crohn's disease [2]; end of the study", "value": "Twenty-five"},
      {"measurement": "tolerability", "setting": "Crohn's disease [2]; oral", "value": "well tolerated without any serious adverse events"},
      {"measurement": "MRI over the last 8 years", "setting": "multiple sclerosis; person six", "value": "no progression of the disease"},
      {"measurement": "relapses", "setting": "multiple sclerosis; person six, 4.5 mg at bedtime since 2002", "value": "not had a one relapse"},
      {"measurement": "MRI", "setting": "multiple sclerosis; person, SPMS, 1.5 mg to 3 mg, January of 2011", "value": "reduced plaque and lesion size"},
      {"measurement": "mobility", "setting": "multiple sclerosis; person, Secondary Progressive, 1.5 mg to 3 mg", "value": "upgraded from wheelchair to cane"},
      {"measurement": "time to walking again with a cane", "setting": "multiple sclerosis; person, wheelchair bound, 3 mg nightly", "value": "≤ 10", "unit": "days"},
      {"measurement": "Exacerbations", "setting": "multiple sclerosis; person, 1.5 mg increasing to 4.5 mg nightly, with hormones and Cortef", "value": "became less frequent and have stopped"},
      {"measurement": "disease course", "setting": "multiple sclerosis; person, 4.5 mg for seven months", "value": "the disease has stabilized and the progressive deterioration has stopped"},
      {"measurement": "relapses", "setting": "multiple sclerosis; person, 4.5 mg nightly, update 2010", "value": "no relapses"},
      {"measurement": "side effects", "setting": "multiple sclerosis; person, after increase to 4.5 mg", "value": "some insomnia"},
      {"measurement": "elevated levels of serum alpha interferon (IFN-α)", "setting": "patients with AIDS; 1.75 mg nightly, 3-month double-blind period, vs placebo p<0.01", "value": "significant drop"},
      {"measurement": "lymphocyte mitogen responses", "setting": "patients with AIDS; [6]", "value": "declined on placebo and not on Immediate release naltrexone"},
      {"measurement": "pathologically elevated levels of acid-labile alpha interferon", "setting": "patients with AIDS; [6]", "value": "declined significantly"},
      {"measurement": "incidence of opportunistic infections", "setting": "patients with AIDS; 3.0 mg daily at bedtime, 12 weeks, placebo 5 out of 16 (31%)", "value": "0 of the 22"},
      {"measurement": "survival of patients who did not show a decline in IFN-a", "setting": "patients with AIDS; 2 of the 15", "value": 13, "unit": "%"},
      {"measurement": "survival of patients who showed a decline in IFN-a", "setting": "patients with AIDS; Nineteen of the 23", "value": 83, "unit": "%"},
      {"measurement": "mean IFN-a level after decline", "setting": "patients with AIDS; from mean of 144.9 IU. over a 12-month period, 23 patients", "value": 11.0, "unit": "IU."},
      {"measurement": "side effects", "setting": "patients with AIDS; human, in vivo", "value": "No side effects were noted"},
      {"measurement": "subjects with at least a 70-point decline in CDAI scores", "setting": "Crohn's disease [3]; 4.5-mg daily oral, placebo 40% (p=0.009)", "value": "Eighty-eight"},
      {"measurement": "remission with a CDEIS score<6", "setting": "Crohn's disease [3]; after 12 weeks, placebo 8%", "value": 33, "unit": "%"},
      {"measurement": "endoscopic response (5-point decline in CDEIS)", "setting": "Crohn's disease [3]; after 12 weeks, placebo 28% (p=0.008)", "value": 78, "unit": "%"},
      {"measurement": "major adverse events", "setting": "[4]; 40 patients", "value": "two"},
      {"measurement": "BE (beta-endorphins) concentration", "setting": "[4]; during the trial", "value": "increased"},
      {"measurement": "spasticity", "setting": "[4]; end of the trial", "value": "significant reduction"},
      {"measurement": "Neurological disability", "setting": "[4]; human, in vivo", "value": "progressed in only one patient"},
      {"measurement": "safety and tolerability", "setting": "[4]; six months", "value": "safe and well tolerated"},
      {"measurement": "reduction of fibromyalgia symptoms over placebo", "setting": "fibromyalgia; 4.5 mg, entire cohort", "value": "greater than 30%"},
      {"measurement": "Side effects (including insomnia and vivid dreams)", "setting": "fibromyalgia; in vivo", "value": "rare"},
      {"measurement": "mechanical and heat pain thresholds", "setting": "fibromyalgia; laboratory visits", "value": "improved"},
      {"measurement": "T-cytotoxic-suppressor (CD4− CD8+)", "setting": "[5]", "value": "significant reduction"},
      {"measurement": "T-helper-inducers (CD4+ CD8−)", "setting": "[5]", "value": "significant increase"},
      {"measurement": "Actometer readings", "setting": "autism; children very active at baseline", "value": "improved in two children"},
      {"measurement": "Changes in parent measures (CGI, Conners Impulsivity-Hyperactivity Factor, SE-Restlessness) and Teacher CGI", "setting": "autism; in vivo", "value": "achieved statistical significance"},
      {"measurement": "subjects improved in two or more settings", "setting": "autism; in vivo", "value": "Eight of 13"},
      {"measurement": "mobility", "setting": "Systemic Lupus; 3 mg, within three weeks", "value": "improved mobility"},
      {"measurement": "hospital stays", "setting": "Systemic Lupus; 4.5 mg, since March of 2013", "value": "no hospital stays"},
      {"measurement": "ANA", "setting": "Systemic Lupus; for 7 years", "value": "normal"},
      {"measurement": "Lupus status", "setting": "Systemic Lupus; liquid form titrated from 0.1 mg to 1.5 mg", "value": "in remission"},
      {"measurement": "tolerability", "setting": "Systemic Lupus; started at 1.5 mg", "value": "unable to take it due to insomnia and pruritis"}
    ]}
  ]
}
